One assay addresses CK1δ (Homo sapiens, UniProt P48730). In words: CK1δ kinase assay (Caliper LabChip electrophoretic separation of fluoresceinated peptide substrate and product). It counts as biochemical. The conditions noted are these: 200 pM CK1δ, 50 μM ATP, 1.5 μM peptide, 22 hours at room temperature. The essentials: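 Each reaction was incubated 22 hours at room temperature and terminated with EDTA. Read-out was microfluidic electrophoretic separation of fluoresceinated substrate and phospho-product.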

Another assay deals with CK1ε (Homo sapiens, UniProt P49674). In words: CK1ε kinase assay (Caliper LabChip electrophoretic separation of fluoresceinated peptide substrate and product). It counts as biochemical. Particulars: 200 pM CK1ε, 50 μM ATP, 1.5 μM peptide, 22 hours at room temperature. On the procedure: CK1ε and CK1δ Kinase Assays
CK1ε, sequence (P49674 whole entry): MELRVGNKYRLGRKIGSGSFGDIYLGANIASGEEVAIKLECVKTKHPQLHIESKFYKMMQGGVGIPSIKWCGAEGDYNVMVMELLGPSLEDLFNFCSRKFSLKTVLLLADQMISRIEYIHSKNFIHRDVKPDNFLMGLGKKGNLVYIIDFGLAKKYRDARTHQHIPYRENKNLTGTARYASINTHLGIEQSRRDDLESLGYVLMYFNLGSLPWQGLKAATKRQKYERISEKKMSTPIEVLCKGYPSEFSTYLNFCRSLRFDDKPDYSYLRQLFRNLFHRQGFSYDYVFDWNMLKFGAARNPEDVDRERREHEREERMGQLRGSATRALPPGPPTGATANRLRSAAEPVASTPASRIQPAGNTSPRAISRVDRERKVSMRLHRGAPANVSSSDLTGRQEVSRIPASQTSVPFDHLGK
The kinase assay was performed in V-bottom 384-well plates. […] The reaction was incubated at room temperature for 22 hours and terminated by adding 45 μl of 35 mM EDTA to each sample. The reaction mixture was analyzed on the Caliper LABCHIP®3000 (Caliper, Hopkinton, Mass.) by electrophoretic separation of the unphosphorylated substrate and phosphorylated product. […] Compounds were dissolved at 10 mM in dimethylsulfoxide (DMSO) and evaluated at eleven concentrations. IC50 values were derived by non-linear regression analysis.

The text below walks through data of patent publication US9273058B2 (BRISTOL-MYERS SQUIBB COMPANY, priority 2013, dated 2016).

Structures are written as SMILES. Like-named read-outs stand apart in the source and are kept apart here.

CK1δ, sequence (P48730 whole entry): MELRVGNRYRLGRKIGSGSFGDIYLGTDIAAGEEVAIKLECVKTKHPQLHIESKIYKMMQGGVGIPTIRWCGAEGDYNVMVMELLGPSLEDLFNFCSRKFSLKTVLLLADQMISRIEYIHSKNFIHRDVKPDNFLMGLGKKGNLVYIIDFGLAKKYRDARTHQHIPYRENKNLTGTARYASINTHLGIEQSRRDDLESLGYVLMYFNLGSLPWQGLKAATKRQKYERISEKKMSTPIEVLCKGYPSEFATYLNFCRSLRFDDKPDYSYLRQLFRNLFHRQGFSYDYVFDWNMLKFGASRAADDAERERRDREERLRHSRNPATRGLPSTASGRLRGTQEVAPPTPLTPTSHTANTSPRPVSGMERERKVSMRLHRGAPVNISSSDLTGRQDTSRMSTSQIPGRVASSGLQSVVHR

As for `CC1(NC(=O)N2CCn3nc(-c4ccc(Cl)c(Cl)c4)c(C(N)=O)c3C2)CC2(C1)CC2(F)F` (single isomer, unassigned) [Compound 329, 2-(3,4-Dichlorophenyl)-N^5-(1,1-difluoro-5-methylspiro[2.3]hexan-5-yl)-6,7-dihydropyrazolo[1,5-a]pyrazine-3,5(4H)-dicarboxamide], the IC50 at CK1δ (read-out: CK1δ IC50 range) and at CK1ε (read-out: CK1ε IC50 range) was 0.01 to 10 nM throughout.
`CC1(NC(=O)N2CCn3nc(-c4cccc(Cl)c4)c(C(N)=O)c3C2)CC2(C1)CC2(F)F` (single isomer, unassigned) [Compound 330, 2-(3-Chlorophenyl)-N^5-(1,1-difluoro-5-methylspiro[2.3]hexan-5-yl)-6,7-dihydropyrazolo[1,5-a]pyrazine-3,5(4H)-dicarboxamide]: the IC50 at CK1δ (read-out: CK1δ IC50 range) and at CK1ε (read-out: CK1ε IC50 range) was 0.01 to 10 nM throughout.
On to `CC1(NC(=O)N2CCn3nc(-c4cccc(Cl)c4)c(C(N)=O)c3C2)CC2(C1)CC2(F)F` (single isomer, unassigned) [Compound 331, 2-(3-Chlorophenyl)-N^5-(1,1-difluoro-5-methylspiro[2.3]hexan-5-yl)-6,7-dihydropyrazolo[1,5-a]pyrazine-3,5(4H)-dicarboxamide], for which the IC50 on CK1δ (read-out: CK1δ IC50 range) and on CK1ε (read-out: CK1ε IC50 range) was 0.01 to 10 nM in each case.
`CC1Cn2nc(-c3ccc(F)c(Cl)c3)c(C(N)=O)c2CN1C(=O)NC(C)(C)C` (single isomer, unassigned) [Compound 340, N^5-(tert-Butyl)-2-(3-chloro-4-fluorophenyl)-6-methyl-6,7-dihydropyrazolo[1,5-a]pyrazine-3,5(4H)-dicarboxamide]: the IC50 at CK1δ (read-out: CK1δ IC50 range) lay within 0.01 to 10 nM; at CK1ε (read-out: CK1ε IC50 range) it was 10 to 100 nM.
As for `CC1Cn2nc(-c3ccc(F)c(Cl)c3)c(C(N)=O)c2CN1C(=O)NC(C)(C)C` (single isomer, unassigned) [Compound 341, N^5-(tert-Butyl)-2-(3-chloro-4-fluorophenyl)-6-methyl-6,7-dihydropyrazolo[1,5-a]pyrazine-3,5(4H)-dicarboxamide], the results for the IC50 on CK1δ (read-out: CK1δ IC50 range) and at CK1ε (read-out: CK1ε IC50 range) were 10 to 100 nM and 0.01 to 10 nM, respectively.
For `CC1Cn2nc(-c3ccc(F)c(Cl)c3)c(C(N)=O)c2CN1C(=O)NC1CC(F)(F)C1` (single isomer, unassigned) [Compound 342, 2-(3-Chloro-4-fluorophenyl)-N^5-(3,3-difluorocyclobutyl)-6-methyl-6,7-dihydropyrazolo[1,5-a]pyrazine-3,5(4H)-dicarboxamide] the same measures were 10 to 100 nM and 10 to 100 nM.
For `CC1Cn2nc(-c3ccc(F)c(Cl)c3)c(C(N)=O)c2CN1C(=O)NC1CC(F)(F)C1` (single isomer, unassigned) [Compound 343, 2-(3-Chloro-4-fluorophenyl)-N^5-(3,3-difluorocyclobutyl)-6-methyl-6,7-dihydropyrazolo[1,5-a]pyrazine-3,5(4H)-dicarboxamide] the same measures were 0.01 to 10 nM and 0.01 to 10 nM.
For `CC1Cn2nc(-c3ccc(F)c(Cl)c3)c(C(N)=O)c2CN1C(=O)NC1(C)CC(F)(F)C1` (single isomer, unassigned) [Compound 344, 2-(3-Chloro-4-fluorophenyl)-N^5-(3,3-difluoro-1-methylcyclobutyl)-6-methyl-6,7-dihydropyrazolo[1,5-a]pyrazine-3,5(4H)-dicarboxamide] the same measures were 0.01 to 10 nM and 0.01 to 10 nM.
As for `CC1Cn2nc(-c3ccc(F)c(Cl)c3)c(C(N)=O)c2CN1C(=O)NC1(C)CC(F)(F)C1` (single isomer, unassigned) [Compound 345, 2-(3-Chloro-4-fluorophenyl)-N^5-(3,3-difluoro-1-methylcyclobutyl)-6-methyl-6,7-dihydropyrazolo[1,5-a]pyrazine-3,5(4H)-dicarboxamide], the IC50 on CK1δ (read-out: CK1δ IC50 range) and on CK1ε (read-out: CK1ε IC50 range) was 0.01 to 10 nM in each case.
Regarding `CC(C)(C)NC(=O)N1Cc2c(C(N)=O)c(-c3ccc(F)c(Cl)c3)nn2CC1C(F)(F)F` (single isomer, unassigned) [Compound 346, N^5-(tert-Butyl)-2-(3-chloro-4-fluorophenyl)-6-(trifluoromethyl)-6,7-dihydropyrazolo[1,5-a]pyrazine-3,5(4H)-dicarboxamide], the IC50 at CK1δ (read-out: CK1δ IC50 range) and at CK1ε (read-out: CK1ε IC50 range) was 100 to 2000 nM in each case.
As to `CC(C)(C)NC(=O)N1Cc2c(C(N)=O)c(-c3ccc(F)c(Cl)c3)nn2CC1C(F)(F)F` (single isomer, unassigned) [Compound 347, N^5-(tert-Butyl)-2-(3-chloro-4-fluorophenyl)-6-(trifluoromethyl)-6,7-dihydropyrazolo[1,5-a]pyrazine-3,5(4H)-dicarboxamide], the IC50 on CK1δ (read-out: CK1δ IC50 range) is 10 to 100 nM; at CK1ε (read-out: CK1ε IC50 range), 0.01 to 10 nM.
For `CC1(NC(=O)N2Cc3c(C(N)=O)c(-c4ccc(F)c(Cl)c4)nn3CC2C2CC2)CC(F)(F)C1` (single isomer, unassigned) [Compound 348, 2-(3-Chloro-4-fluorophenyl)-6-cyclopropyl-N^5-(3,3-difluoro-1-methylcyclobutyl)-6,7-dihydropyrazolo[1,5-a]pyrazine-3,5(4H)-dicarboxamide] the same measures were 100 to 2000 nM and 10 to 100 nM.
Take `CC1(NC(=O)N2Cc3c(C(N)=O)c(-c4ccc(F)c(Cl)c4)nn3CC2C2CC2)CC(F)(F)C1` (single isomer, unassigned) [Compound 349, 2-(3-Chloro-4-fluorophenyl)-6-cyclopropyl-N^5-(3,3-difluoro-1-methylcyclobutyl)-6,7-dihydropyrazolo[1,5-a]pyrazine-3,5(4H)-dicarboxamide]: the IC50 was 34.2 nM at CK1δ (read-out: CK1δ), 10 to 100 nM at CK1δ (read-out: CK1δ IC50 range), 20.1 nM at CK1ε (read-out: CK1ε) and 10 to 100 nM at CK1ε (read-out: CK1ε IC50 range).
Regarding `CC(C)(C)NC(=O)N1Cc2c(C(N)=O)c(-c3ccc(F)c(Cl)c3)nn2C(CCO)C1` (single isomer, unassigned) [Compound A96, N^5-(tert-Butyl)-2-(3-chloro-4-fluorophenyl)-7-(2-hydroxyethyl)-6,7-dihydropyrazolo[1,5-a]pyrazine-3,5(4H)-dicarboxamide], the IC50 on CK1δ (read-out: CK1δ IC50 range) and at CK1ε (read-out: CK1ε IC50 range) was 0.01 to 10 nM throughout.
`COCCC1CN(C(=O)NC(C)(C)C)Cc2c(C(N)=O)c(-c3ccc(F)c(Cl)c3)nn21` (single isomer, unassigned) [Compound A100, N^5-(tert-Butyl)-2-(3-chloro-4-fluorophenyl)-7-(2-methoxyethyl)-6,7-dihydropyrazolo[1,5-a]pyrazine-3,5(4H)-dicarboxamide]: the IC50 on CK1δ (read-out: CK1δ IC50 range) lay in the range of 10 to 100 nM; at CK1ε (read-out: CK1ε IC50 range) it was 0.01 to 10 nM.
Consider `COCCC1CN(C(=O)NC(C)(C)C)Cc2c(C(N)=O)c(-c3ccc(F)c(Cl)c3)nn21` (single isomer, unassigned) [Compound A101, N^5-(tert-Butyl)-2-(3-chloro-4-fluorophenyl)-7-(2-methoxyethyl)-6,7-dihydropyrazolo[1,5-a]pyrazine-3,5(4H)-dicarboxamide], for which the IC50 on CK1δ (read-out: CK1δ IC50 range) and on CK1ε (read-out: CK1ε IC50 range) was 0.01 to 10 nM in each case.
Take `CC(C)(C)NC(=O)N1Cc2c(C(N)=O)c(-c3ccc(F)c(Cl)c3)nn2C(CCF)C1` (single isomer, unassigned) [Compound A102, N^5-(tert-Butyl)-2-(3-chloro-4-fluorophenyl)-7-(2-fluoroethyl)-6,7-dihydropyrazolo[1,5-a]pyrazine-3,5(4H)-dicarboxamide]: the IC50 on CK1δ (read-out: CK1δ IC50 range) and on CK1ε (read-out: CK1ε IC50 range) was 0.01 to 10 nM each time.
